Patent publication US20060276464A1, “Diarylsulfone sulfonamides and use thereof” (Wyeth, priority 2005, published 2006)
Values joined by “and” are separate entries in the source; they are usually repeats but may differ in a detail not shown here. Equal entries are not always repeated. Where two headings read alike, the source gives them in different places.

Assays:
[1] = biological target: T1, SFRP-1 (Homo sapiens, UniProt Q8N474); experiment: Fluorescence polarization binding assay (competitive displacement of a probe compound from SFRP-1); details: fluorescence anisotropy, 45 nM SFRP-1, 20 nM probe;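 also: test compound competes with a fluorescent probe held by SFRP-1, seen as a drop in probe anisotropy after incubation in darkness, with anisotropy as function of rising compound dose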
T1 sequence (Q8N474 32-314): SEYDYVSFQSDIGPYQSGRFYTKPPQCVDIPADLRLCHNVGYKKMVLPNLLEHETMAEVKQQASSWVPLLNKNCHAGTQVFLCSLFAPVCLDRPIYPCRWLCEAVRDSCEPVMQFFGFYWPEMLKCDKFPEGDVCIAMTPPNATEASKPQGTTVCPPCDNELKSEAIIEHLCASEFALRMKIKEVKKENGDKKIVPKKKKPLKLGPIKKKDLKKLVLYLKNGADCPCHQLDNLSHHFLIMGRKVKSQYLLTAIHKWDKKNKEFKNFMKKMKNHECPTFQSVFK

[2] = biological target: T1, SFRP-1; experiment: Cell-based assay for in vitro measurement of SFRP-1/SARP2 antagonist activity (U2OS cells co-transfected with 16x TCF-tk-Luciferase reporter, Wnt and hSFRP-1); details: for fold induction at 10 µM / fold induction at 15 µM: U2OS; for fold induction at 10 µM: read-out: Fold Induction with SFRP-1, U2OS cells, single dose 10 μM, luciferase reporter, fold induction over SFRP-1 control;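 as to all read-outs here: U2OS cells co-transfected with a TCF-tk luciferase reporter, a Wnt vector, hSFRP-1 or empty vector and CMV-βgal, luciferase luminescence read in cell lysates alongside βgal activity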
[3] = read-out: Fold Induction with SFRP-1, Conc 15 μM, with SFRP-1, fold induction over SFRP-1 control, single dose
[4] = read-out: Fold Induction without SFRP-1, Conc 15 μM, without SFRP-1, single dose
[5] = read-out: Fold Induction with SFRP-1, Conc 15 μM, single dose, luciferase reporter, fold induction over SFRP-1 control, cells with SFRP-1
[6] = read-out: Fold Induction without SFRP-1, Conc 15 μM, single dose, luciferase reporter, cells without SFRP-1 (specificity control)

| SMILES | IC50 [1] | EC50 [2] | fold induction at 10 µM [2] | fold induction at 15 µM [2, 3] | fold induction at 15 µM [2, 4] | fold induction at 15 µM [2, 5] | fold induction at 15 µM [2, 6] |
| --- | --- | --- | --- | --- | --- | --- | --- |
| O=S(=O)(NCC1CCOCC1)c1cc(S(=O)(=O)c2ccccc2)ccc1C(F)(F)F [Example 765, 5-(phenylsulfonyl)-N-(tetrahydro-2H-pyran-4-ylmethyl)-2-(trifluoromethyl)benzenesulfonamide] | 190 nM | 754 nM | 3.7 |  |  |  |  |
| CC(C)(C)c1ccc(S(=O)(=O)c2ccccc2)cc1S(=O)(=O)NCCc1ccccn1 [Example 461, 2-tert-butyl-5-(phenylsulfonyl)-N-(2-pyridin-2-ylethyl)benzenesulfonamide] | 700 nM |  |  | 1.7 | 1 |  |  |
| Nc1ccc(CCNS(=O)(=O)c2cc(S(=O)(=O)c3ccccc3)ccc2C(F)(F)F)cc1 [Example 928, N-[2-(4-aminophenyl)ethyl]-5-(phenylsulfonyl)-2-(trifluoromethyl)benzenesulfonamide] | 180 nM | 380 nM | 3.9 |  |  |  |  |
| CNc1ccc(S(=O)(=O)c2ccc(C(C)C)c(S(=O)(=O)NCC3CCOCC3)c2)cc1 [Example 543, 2-isopropyl-5-{[4-(methylamino)phenyl]sulfonyl}-N-(tetrahydro-2H-pyran-4-ylmethyl)benzenesulfonamide] | 800 nM and 1600 nM |  |  |  |  | 2.7 | 1.1 |
| O=S(=O)(NCC1CCNCC1)c1cc(S(=O)(=O)c2ccccc2)ccc1C(F)(F)F [Example 899, 5-(phenylsulfonyl)-N-(piperidin-4-ylmethyl)-2-(trifluoromethyl)benzenesulfonamide] | 300 nM | 894 nM | 4.2 |  |  |  |  |
| CN(CCNS(=O)(=O)c1cc(S(=O)(=O)c2ccccc2)ccc1C(F)(F)F)C(=O)c1cccnc1Cl [Example 851, 2-Chloro-N-methyl-N-[2-({[5-(phenylsulfonyl)-2-(trifluoromethyl)phenyl]sulfonyl}amino)ethyl]nicotinamide] | 400 nM | 1510 nM | 3.6 |  |  |  |  |
| COC(=O)c1ccc(C(=O)N(C)CCNS(=O)(=O)c2cc(S(=O)(=O)c3ccccc3)ccc2C(F)(F)F)cc1 [Example 848, Methyl 4-({methyl[2-({[5-(phenylsulfonyl)-2-(trifluoromethyl)phenyl]sulfonyl}amino)ethyl]amino}carbonyl)benzoate] | 700 nM | 1640 nM | 3.6 |  |  |  |  |
| Cc1ccc(S(=O)(=O)c2ccccc2)cc1S(=O)(=O)NC1CCOCC1 [Example 298, 2-methyl-5-(phenylsulfonyl)-N-tetrahydro-2H-pyran-4-ylbenzenesulfonamide] | 800 nM |  |  | 3.2 | 1.3 |  |  |
| COC(=O)N1CCC(NS(=O)(=O)c2cc(S(=O)(=O)c3ccccc3)ccc2C)CC1 [Example 488, methyl 4-({[2-methyl-5-(phenylsulfonyl)phenyl]sulfonyl}amino)piperidine-1-carboxylate] | 2100 nM |  |  |  |  | 2 | 0.9 |
| CC(C)c1ccc(S(=O)(=O)c2ccc(N3CCN(C)CC3)cc2)cc1S(=O)(=O)NCCC1CCOCC1 [Example 549, 2-isopropyl-5-{[4-(4-methylpiperazin-1-yl)phenyl]sulfonyl}-N-[2-(tetrahydro-2H-pyran-4-yl)ethyl]benzenesulfonamide] | 1600 nM and 2900 nM |  |  |  |  | 3.6 | 1.5 |
| O=S(=O)(N[C@H]1CC[C@H](O)CC1)c1cc(S(=O)(=O)c2ccccc2)ccc1C(F)(F)F [Example 1013, N-(trans-4-hydroxycyclohexyl)-5-(phenylsulfonyl)-2-(trifluoromethyl)benzenesulfonamide] | 158 nM | 277 nM |  |  |  |  |  |
| COc1cccc(S(=O)(=O)c2ccc(Cl)c(S(=O)(=O)NC3CCOCC3)c2)c1 [Example 606, 2-chloro-5-[(3-methoxyphenyl)sulfonyl]-N-(tetrahydro-2H-pyran-4-yl)benzenesulfonamide] | 8000 nM |  |  |  |  | 1.9 | 1 |
| Cc1ccc(S(=O)(=O)c2ccccc2)cc1S(=O)(=O)NC1CCN(C(=O)c2ccc(Cl)cc2)CC1 [Example 466, N-[1-(4-chlorobenzoyl)piperidin-4-yl]-2-methyl-5-(phenylsulfonyl)benzenesulfonamide] | 1700 nM |  |  | 1.7 | 1.1 |  |  |
| CC(C)c1ccc(S(=O)(=O)c2ccc(F)cc2)cc1S(=O)(=O)NCCC1CCOCC1 [Example 322, 5-[(4-fluorophenyl)sulfonyl]-2-isopropyl-N-(2-tetrahydro-2H-pyran-4-ylethyl)benzenesulfonamide] | 600 nM |  |  | 2.5 | 1.1 |  |  |
| O=S(=O)(NCCc1ccc(-c2nn[nH]n2)cc1)c1cc(S(=O)(=O)c2ccccc2)ccc1C(F)(F)F [Example 984, 5-(phenylsulfonyl)-N-{2-[4-(2H-tetrazol-5-yl)phenyl]ethyl}-2-(trifluoromethyl)benzenesulfonamide] | 200 nM | 657 nM |  |  |  |  |  |
| CC(C)c1ccc(S(=O)(=O)c2ccc(N3CCN(C(=O)OC(C)(C)C)CC3)cc2)cc1S(=O)(=O)NC1CCOCC1 [Example 625, tert-butyl 4-[4-({4-isopropyl-3-[(tetrahydro-2H-pyran-4-ylamino)sulfonyl]phenyl}sulfonyl)phenyl]piperazine-1-carboxylate] | 3000 nM |  |  |  |  | 2.2 | 1.1 |
| CNC(=O)CN1CCC(NS(=O)(=O)c2cc(S(=O)(=O)c3ccccc3)ccc2C(F)(F)F)CC1 [Example 1083, N-methyl-2-[4-({[5-(phenylsulfonyl)-2-(trifluoromethyl)phenyl]sulfonyl}amino)piperidin-1-yl]acetamide] | 150 nM | 366 nM |  |  |  |  |  |
| CNc1ccc(S(=O)(=O)c2ccc(C)c(S(=O)(=O)NCCc3ccccn3)c2)cc1 [Example 356, 2-methyl-5-{[4-(methylamino)phenyl]sulfonyl)-N-(2-pyridin-2-ylethyl)benzenesulfonamide] | 1700 nM |  |  | 2.5 | 1 |  |  |
| O=S(=O)(NCC(O)c1cccnc1)c1cc(S(=O)(=O)c2ccccc2)ccc1C(F)(F)F (centres unmarked) [Example 741, N-(2-hydroxy-2-pyridin-3-ylethyl)-5-(phenylsulfonyl)-2-(trifluoromethyl)benzenesulfonamide] | 300 nM | 1000 nM | 4.8 |  |  |  |  |
| COC(=O)C1CCC(NS(=O)(=O)c2cc(S(=O)(=O)c3ccccc3)ccc2C(C)C)CC1 (centres unmarked) [Example 933, methyl 4-({[2-isopropyl-5-(phenylsulfonyl)phenyl]sulfonyl}amino)cyclohexanecarboxylate] | 6000 nM | 1740 nM | 2.5 |  |  |  |  |
| O=S(=O)(NCC(O)c1ccccc1)c1cc(S(=O)(=O)c2ccccc2)ccc1C(F)(F)F (centres unmarked) [Example 682, N-(2-hydroxy-2-phenylethyl)-5-(phenylsulfonyl)-2-(trifluoromethyl)benzenesulfonamide] | 250 nM | 765 nM | 1.2 |  |  |  |  |
| Cc1cc(C)c(S(=O)(=O)c2ccccc2)cc1S(=O)(=O)NCC(O)c1ccccn1 (centres unmarked) [Example 729, N-(2-hydroxy-2-pyridin-2-ylethyl)-2,4-dimethyl-5-(phenylsulfonyl)benzenesulfonamide] | 15000 nM |  | 1.7 |  |  |  |  |
| CC(C)c1ccc(S(=O)(=O)c2ccccc2)cc1S(=O)(=O)NC1CCN(C(=O)OC(C)(C)C)CC1 [Example 912, tert-butyl 4-({[2-isopropyl-5-(phenylsulfonyl)phenyl]sulfonyl}amino)piperidine-1-carboxylate] | 2100 nM | 1010 nM | 2.4 |  |  |  |  |
| CN(CCNS(=O)(=O)c1cc(S(=O)(=O)c2ccccc2)ccc1C(F)(F)F)C(=O)c1ccccc1 [Example 819, N-Methyl-N-[2-({[5-(phenylsulfonyl)-2-(trifluoromethyl)phenyl]sulfonyl}amino)ethyl]benzamide] | 220 nM | 1570 nM | 3.3 |  |  |  |  |
| Cc1ccc(S(=O)(=O)c2ccccc2)cc1S(=O)(=O)NC1CCN(C(=O)OCC(C)C)CC1 [Example 498, isobutyl 4-({[2-methyl-5-(phenylsulfonyl)phenyl]sulfonyl}amino)piperidine-1-carboxylate] | 2200 nM |  |  |  |  | 1.8 | 1 |
| CC(C)c1ccc(S(=O)(=O)c2ccc(F)cc2)cc1S(=O)(=O)NCCC1CCCNC1 (centres unmarked) [Example 884, 5-[(4-fluorophenyl)sulfonyl]-2-isopropyl-N-(2-piperidin-3-ylethyl)benzenesulfonamide] | 1600 nM | 3400 nM | 2.7 |  |  |  |  |
| CN(CCCNS(=O)(=O)c1cc(S(=O)(=O)c2ccccc2)ccc1C(F)(F)F)C(=O)NC1CCN(C(=O)OC(C)(C)C)CC1 [Example 955] | 6000 nM | 5160 nM | 2.4 |  |  |  |  |
